This assay has as its system CD2F1 mice, L1210 leukemia ip, survival T/C. The experiment in a line: NCI In Vivo Anticancer Drug Screen. Data for tumor model L1210 Leukemia (intraperitoneal) in CD2F1 (CDF1) mice. Particulars: higher = longer survival. The essentials:
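Mice carrying a transplanted tumor received test compound or vehicle alone. The value is the measurement in the treated group divided by that in the vehicle-treated control group.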

The mark [1] stands for this setting: endpoint: mean survival time, dose: 100.0 mg/kg/injection, schedule: Q01DX009 (ip), vehicle: Klucel (hydroxypropylcellulose) (HPC).
Where [2] appears, read: endpoint: mean survival time, dose: 12.5 mg/kg/injection, schedule: Q01DX009 (ip), vehicle: saline with Tween-80.
Where [3] appears, read: endpoint: mean survival time, dose: 25.0 mg/kg/injection, schedule: Q01DX009 (ip), vehicle: saline with Tween-80.
The mark [4] stands for this setting: endpoint: mean survival time, dose: 50.0 mg/kg/injection, schedule: Q01DX009 (ip), vehicle: saline with Tween-80.
Setting [5] is: endpoint: mean survival time, dose: 100.0 mg/kg/injection, schedule: Q01DX009 (ip), vehicle: saline with Tween-80.
Setting [6] is: endpoint: mean survival time, dose: 200.0 mg/kg/injection, schedule: Q01DX009 (ip), vehicle: saline with Tween-80.
The mark [7] stands for this setting: endpoint: mean survival time, dose: 25.0 mg/kg/injection, schedule: Q04DX002 (ip), vehicle: saline with Tween-80.
[8] abbreviates: endpoint: mean survival time, dose: 50.0 mg/kg/injection, schedule: Q04DX002 (ip), vehicle: saline with Tween-80.
The mark [9] stands for this setting: endpoint: mean survival time, dose: 100.0 mg/kg/injection, schedule: Q04DX002 (ip), vehicle: saline with Tween-80.
[10] abbreviates: endpoint: mean survival time, dose: 25.0 mg/kg/injection, schedule: Q04DX003 (ip), vehicle: saline with Tween-80.
[11] abbreviates: endpoint: mean survival time, dose: 100.0 mg/kg/injection, schedule: Q01DX001 (ip), vehicle: saline with Tween-80.
Setting [12] is: endpoint: mean survival time, dose: 100.0 mg/kg/injection, schedule: Q04DX003 (ip), vehicle: saline with Tween-80.
Where [13] appears, read: endpoint: mean survival time, dose: 200.0 mg/kg/injection, schedule: Q01DX001 (ip), vehicle: saline with Tween-80.
Setting [14] is: endpoint: mean survival time, dose: 200.0 mg/kg/injection, schedule: Q04DX003 (ip), vehicle: saline with Tween-80.

Each structure is given as a SMILES string. “And” between values parts separate entries of the source, which are not always exact repeats. Identical values can stand only once. Toxic doses and inconclusive results are not listed.

In the case of `CN(C)N=Nc1cn[nH]c1C(N)=O`, the T/C under setting [1] is 172 % of control.
Take `O=C(CNC(=O)Nc1cccc(C(F)(F)F)c1)N/N=C/c1c(O)ccc2ccccc12`: the T/C is, setting by setting: under setting [2], 94 % of control; under setting [3], 94 % of control; under setting [4], 94 % of control and 96 % of control; under setting [5], 100 % of control; under setting [6], 100 % of control.
Take `CC(=O)ON1C(=O)C2C3C=CC(O3)C2C1=O` (configuration not stated): the T/C reads like this: (endpoint: mean survival time, dose: 12.5 mg/kg/injection, schedule: Q01DX009 (ip), vehicle: water) 100 % of control; (endpoint: mean survival time, dose: 25.0 mg/kg/injection, schedule: Q01DX009 (ip), vehicle: water) 91 % of control; (endpoint: mean survival time, dose: 50.0 mg/kg/injection, schedule: Q01DX009 (ip), vehicle: water) 96 % of control.
For the molecule `CN(C)N=Nc1cc(Cl)cc(C(N)=O)c1Cl`, the T/C (endpoint: mean survival time, dose: 88.0 mg/kg/injection, schedule: Q01DX009 (ip), vehicle: saline with Tween-80) is 123 % of control; the T/C (endpoint: mean survival time, dose: 177.0 mg/kg/injection, schedule: Q01DX009 (ip), vehicle: saline with Tween-80) is 120 % of control; the T/C (endpoint: mean survival time, dose: 400.0 mg/kg/injection, schedule: Q01DX009 (ip), vehicle: saline with Tween-80) is 96 % of control.
In the case of `Clc1ccc2[nH]c3nc4ccccc4nc3c2c1`, the T/C is, setting by setting: (endpoint: mean survival time, dose: 100.0 mg/kg/injection, schedule: Q01DX009 (ip), vehicle: saline) 106 % of control; (endpoint: mean survival time, dose: 200.0 mg/kg/injection, schedule: Q01DX009 (ip), vehicle: saline) 108 % of control.
In the case of `CC1=NCC[N-]C(C)(C)CC(C)=NCC[N-]C(C)(C)C1.[Ni+2].[O-][Cl+3]([O-])([O-])O`, the T/C was 96 % of control (endpoint: mean survival time, dose: 100.0 mg/kg/injection, schedule: Q04DX003 (ip), vehicle: saline) and 97 % of control (endpoint: mean survival time, dose: 200.0 mg/kg/injection, schedule: Q04DX003 (ip), vehicle: saline).
In the case of `COc1ccc(NC(=O)Nc2ccccc2Cl)c(OC)c1`, the T/C is, setting by setting: under setting [7], 94 % of control; under setting [8], 87 % of control; under setting [9], 102 % of control.
Regarding `NCc1cc(O)c(O)c(O)c1`, the T/C is, setting by setting: (endpoint: median survival time, dose: 37.5 mg/kg/injection, schedule: Q01DX005 (ip), vehicle: saline) 114 % of control; (endpoint: median survival time, dose: 150.0 mg/kg/injection, schedule: Q01DX005 (ip), vehicle: saline) 153 % of control; (endpoint: median survival time, dose: 300.0 mg/kg/injection, schedule: Q01DX005 (ip), vehicle: saline) 156 % of control and 160 % of control.
Consider `CCN(CC)Cc1cc(Nc2cc(C)nc(/N=C(\N)Nc3cc(Cl)cc(Cl)c3)n2)ccc1O`, for which the T/C was 93 % of control (endpoint: mean survival time, dose: 12.5 mg/kg/injection, schedule: Q01DX009 (ip), vehicle: Klucel (hydroxypropylcellulose) (HPC)); 102 % of control (endpoint: mean survival time, dose: 25.0 mg/kg/injection, schedule: Q01DX009 (ip), vehicle: Klucel (hydroxypropylcellulose) (HPC)); 97 % of control under setting [7]; 105 % of control (endpoint: mean survival time, dose: 50.0 mg/kg/injection, schedule: Q01DX009 (ip), vehicle: Klucel (hydroxypropylcellulose) (HPC)); 94 % of control under setting [8]; 95 % of control (endpoint: mean survival time, dose: 100.0 mg/kg/injection, schedule: Q01DX001 (ip), vehicle: Klucel (hydroxypropylcellulose) (HPC)). The T/C by setting is: under setting [9], 94 % of control; (endpoint: mean survival time, dose: 200.0 mg/kg/injection, schedule: Q01DX001 (ip), vehicle: Klucel (hydroxypropylcellulose) (HPC)) 115 % of control.
As for `N#CC(c1ccccn1)N1CCOCC1` (configuration not stated), the T/C (endpoint: mean survival time, dose: 12.5 mg/kg/injection, schedule: Q04DX002 (ip), vehicle: saline with Tween-80) was 97 % of control and 100 % of control; the T/C under setting [10] was 104 % of control; the T/C (endpoint: mean survival time, dose: 50.0 mg/kg/injection, schedule: Q01DX001 (ip), vehicle: saline with Tween-80) is 100 % of control; the T/C under setting [4] is 89 % of control and 103 % of control; the T/C (endpoint: mean survival time, dose: 50.0 mg/kg/injection, schedule: Q04DX003 (ip), vehicle: saline with Tween-80) was 109 % of control; the T/C under setting [11] is 94 % of control. Moreover, the T/C runs as follows: under setting [5], 89 % of control and 95 % of control; under setting [12], 107 % of control; under setting [13], 100 % of control; (endpoint: mean survival time, dose: 200.0 mg/kg/injection, schedule: Q04DX002 (ip), vehicle: saline with Tween-80) 98 % of control.
In the case of `CC(C)(C)C(=O)CC(=O)C(C)(C)C.CC(C)(C)C(=O)CC(=O)C(C)(C)C.CC(C)(C)C(=O)CC(=O)C(C)(C)C.[Y]`, the T/C was 97 % of control under setting [12]; 95 % of control under setting [14]; 91 % of control (endpoint: mean survival time, dose: 400.0 mg/kg/injection, schedule: Q04DX003 (ip), vehicle: saline with Tween-80).
Consider `CCCCCCCCCCCCCCCCOc1ccccc1/C=N/O`, for which the T/C by setting is: under setting [1], 87 % of control; (endpoint: mean survival time, dose: 200.0 mg/kg/injection, schedule: Q01DX009 (ip), vehicle: Klucel (hydroxypropylcellulose) (HPC)) 89 % of control.
Regarding `NCCCN1CCN(CCCN)CC1`, the T/C reads like this: (endpoint: mean survival time, dose: 100.0 mg/kg/injection, schedule: Q04DX002 (ip), vehicle: saline) 98 % of control; (endpoint: mean survival time, dose: 200.0 mg/kg/injection, schedule: Q04DX002 (ip), vehicle: saline) 91 % of control; (endpoint: mean survival time, dose: 400.0 mg/kg/injection, schedule: Q04DX002 (ip), vehicle: saline) 98 % of control.
With `CC(C(=O)c1ccccc1)C(N[N+](C)(C)C)c1ccccc1` (configuration not stated), the T/C under setting [10] is 96 % of control.
On to `Cc1cc(O)c2c(c1O)C(=O)c1cccc(O)c1C2=O`, for which the T/C (endpoint: mean survival time, dose: 0.75 mg/kg/injection, schedule: Q01DX009 (ip), vehicle: Klucel (hydroxypropylcellulose) (HPC)) is 103 % of control; the T/C (endpoint: mean survival time, dose: 1.5 mg/kg/injection, schedule: Q01DX009 (ip), vehicle: Klucel (hydroxypropylcellulose) (HPC)) is 98 % of control; the T/C (endpoint: mean survival time, dose: 3.0 mg/kg/injection, schedule: Q01DX009 (ip), vehicle: Klucel (hydroxypropylcellulose) (HPC)) was 101 % of control; the T/C (endpoint: mean survival time, dose: 6.0 mg/kg/injection, schedule: Q01DX009 (ip), vehicle: Klucel (hydroxypropylcellulose) (HPC)) was 113 % of control.
As to `O=C1/C(=C/C2CCC3CCCCC3[N-]2)N2CCC1CC2.[Cl][Co][Cl]` (configuration not stated), the T/C was 102 % of control (endpoint: mean survival time, dose: 9.4 mg/kg/injection, schedule: Q04DX003 (ip), vehicle: saline); 100 % of control (endpoint: mean survival time, dose: 18.8 mg/kg/injection, schedule: Q04DX003 (ip), vehicle: saline); 109 % of control (endpoint: mean survival time, dose: 37.5 mg/kg/injection, schedule: Q04DX003 (ip), vehicle: saline).
As for `Nc1nc(N)c2c(n1)CCCC2`, the T/C was 93 % of control under setting [2] and 88 % of control under setting [3].
Turning to `CC#CS(=O)(=O)C(C)(C)C`, the T/C reads like this: under setting [4], 100 % of control; under setting [5], 100 % of control; under setting [12], 93 % of control; under setting [6], 97 % of control; under setting [14], 90 % of control.
For `CC(C)CCCC(C)[C@@H]1CCC2[C@H]3CCC4(C)CC5=C(C[C@@]4(C)C3CC[C@]21C)C(=O)CC1C2CCCCC2CCN51` (some centres not stated), the T/C was 102 % of control under setting [11]; 90 % of control under setting [13]; 90 % of control (endpoint: mean survival time, dose: 400.0 mg/kg/injection, schedule: Q01DX001 (ip), vehicle: saline with Tween-80).
Take `CCCCOC(=O)/C=C\C(=O)OC(C)C(=O)OCCCC` (configuration not stated): the T/C was 100 % of control (endpoint: median survival time, dose: 50.0 mg/kg/injection, schedule: Q04DX002 (ip), vehicle: saline with Tween-80); 100 % of control (endpoint: median survival time, dose: 100.0 mg/kg/injection, schedule: Q04DX002 (ip), vehicle: saline with Tween-80); 100 % of control (endpoint: median survival time, dose: 200.0 mg/kg/injection, schedule: Q04DX002 (ip), vehicle: saline with Tween-80); 88 % of control (endpoint: median survival time, dose: 400.0 mg/kg/injection, schedule: Q04DX002 (ip), vehicle: saline with Tween-80).
Take `CN(C)Cc1[c-]c(CN(C)C)ccc1.[Cl][Pt]`: the T/C reads like this: (endpoint: median survival time, dose: 1.56 mg/kg/injection, schedule: Q04DX003 (ip), vehicle: saline) 101 % of control; (endpoint: median survival time, dose: 3.12 mg/kg/injection, schedule: Q04DX003 (ip), vehicle: saline) 91 % of control and 107 % of control; (endpoint: median survival time, dose: 6.25 mg/kg/injection, schedule: Q04DX003 (ip), vehicle: saline) 111 % of control; (endpoint: median survival time, dose: 12.5 mg/kg/injection, schedule: Q04DX003 (ip), vehicle: saline) 96 % of control and 107 % of control; (endpoint: median survival time, dose: 25.0 mg/kg/injection, schedule: Q04DX003 (ip), vehicle: saline) 100 % of control and 107 % of control; (endpoint: median survival time, dose: 50.0 mg/kg/injection, schedule: Q04DX003 (ip), vehicle: saline) 100 % of control and 101 % of control. Also, the T/C (endpoint: median survival time, dose: 100.0 mg/kg/injection, schedule: Q04DX003 (ip), vehicle: saline) is 98 % of control.

The values are drawn from PubChem BioAssay AID256 (DTP/NCI, 2004).
